# Measured values as given in patent US8173438B1, “Microbiological assessment method and device utilizing oxygen gradient sensing” (Photonic BioSystems, Inc., priority 1996, dated 2012).
# Experiments:
# Type in all cases: cell-based
# B. subtilis organisms [1] = test: Bulk-volume suspension culture antibiotic test with oxygen-sensor disk at vessel bottom; settings: after 60 minutes, control 2%
# Protocol: Alternatively, as a comparison of outgrowth and detection of antibiotic effects under bulk-volume assay conditions, identical aliquots of B. subtilis organisms were and mixed into 1 ml samples of TSB media prepared with and without penicillin as described above and dispensed into vessels. To measure oxygen consumption of the organisms in these bulk suspension samples, oxygen-sensor disks of the same derivation as the above integrated sensors, but without organisms applied to them, were placed in the bottom of the vessels.
# (§1) All samples were prepared and cultured in parallel, incubated at 37° C. and the oxygen consumption tracked via the integrated sensors' luminescent signals, in a manner similar to that shown in FIG. 7. […] The inhibitory effect of penicillin on organisms' growth was already manifesting itself in this time frame.
# By comparison, the bulk volume cultures of B. subtilis after 60 minutes were just beginning to show indications of growth but were too early into the assay to identify inhibitory effects. The control, without antibiotic present, was just 2% above baseline, which was the same signal level as the 5 ng/ml penicillin sample. The 5 ug/ml high dose registered 1% above baseline.
# B. subtilis cells = test: Companion study: integrated sensor-BI, 8,000 cells collected by filtration on glass-fiber oxygen-sensor disks; settings: for signal change: at about 3.5 hours (control 5% signal increase)
# Protocol: A similar companion study, indicated the potential of the integrated sensor-BI to detect microbial activity and identify antibiotic sensitivity in several hours, using a small number of organisms to initiate the test. Inoculum of only 8,000 B. subtilis cells were collected by filtration, similar to Example 9, on oxygen-sensor disks made from Millipore AP-40 glass-fiber filter material (0.7 micron particle retention). In about 3.5 hours, without antibiotic present, the population expanded in the integrated biological sensor control, producing a 5% level signal increase, i.e. positive indication of outgrowth. […] After 8 hours of incubation, the low-dose penicillin exposed population eventually expanded enabling assay detection of outgrowth. No activity was identified in the sample exposed to the high dose at any point over the 20 hour assay.
# B. subtilis organisms [2] = test: Integrated biological sensor disk antibiotic susceptibility test (oxygen consumption via luminescent signal), 400,000 cells per disk
# Protocol: In this example, organisms were applied to the integrated biological sensor disk in order to attain rapid measures of activity within the disk's microenvironment while the disk was incubated in culture media containing the antibiotic being assayed for effects on the microbial population.
# B. subtilis organisms were cultured in Trypticase Soy Broth (TSB) media to obtain an inoculum of actively growing test organisms. Twenty microliter aliquots, each containing 400,000 cells (established by subsequent plate counting), were removed, and dispensed onto 0.25 inch diameter dry oxygen-sensor disks prepared from 0.45 micron pore cellulose-ester filter membrane stock (Millipore), in a manner similar to that described in Example 7. These integrated biological sensor disks bearing organisms were placed at the bottom of sterile polypropylene vessels, to which was added 1 ml of TSB media containing penicillin at concentrations of 5 ug/ml, or 5 ng/ml, or no antibiotic in the case of the positive growth control.
# as §1
substance,measurement,setting,value
penicillin,signal above baseline,B. subtilis organisms [1]; penicillin 5 ng/ml,2%
same,signal above baseline,B. subtilis organisms [1]; penicillin 5 ug/ml,1%
same,activity (outgrowth / oxygen consumption),"B. subtilis cells; high dose penicillin (5 ug/ml), at any point over the 20 hour assay",No activity
same,incubation time to assay detection of outgrowth,"B. subtilis cells; low-dose penicillin (5 ng/ml), control about 3.5 hours",8 h
same,signal change,B. subtilis cells; penicillin 5 ng/ml,No signal change
same,signal change,B. subtilis cells; penicillin 5 ug/ml,No signal change
same,sensitivity of the organisms to the antibiotic,B. subtilis organisms [2]; conclusion from 5 ng/ml and 5 ug/ml samples,sensitive
same,signal increase (luminescent oxygen sensor signal above baseline),"B. subtilis organisms [2]; penicillin 5 ng/ml, after 60 minutes of assay, 37° C., TSB media, control without penicillin 12%",6%
same,metabolic activity (oxygen consumption),"B. subtilis organisms [2]; penicillin 5 ug/ml, throughout 40 hours of monitoring, 37° C.",no evidence of metabolic activity
